Data on 17 compounds can be found in US10533010B2, “Substituted indole Mcl-1 inhibitors” (Vanderbilt University, priority 2014, dated 2020).

Chain of recombinant Mcl-1 (residues 172-327) (Q07820 172-327): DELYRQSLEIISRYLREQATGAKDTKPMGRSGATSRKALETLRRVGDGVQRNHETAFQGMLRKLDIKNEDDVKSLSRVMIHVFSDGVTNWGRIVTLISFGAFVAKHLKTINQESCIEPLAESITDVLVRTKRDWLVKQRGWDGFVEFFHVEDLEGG

The experiment addresses recombinant Mcl-1 (residues 172-327) (Homo sapiens (Human), UniProt Q07820). As to the kind of experiment: Fluorescence polarization anisotropy competition assay (FITC-Bak or FITC-Bim BH3 peptide) with Mcl-1. It counts as binding. The following applies: Table 2; Ki bins given in nM; FITC-Bak or FITC-Bim peptide competition; Ki converted from IC50; read-out: Ki for Inhibition of Mcl-1. (In fluorescence polarisation assays a small probe gives low polarisation when free and higher when bound to something large.)
For the compound `Cc1cc(OCCCc2c3n(c4c(-c5c(C)nn(C)c5C)c(Cl)ccc24)CCCN(Cc2cc(C(=O)O)cc(OCCC(C)C)n2)C3=O)cc(C)c1Cl` [I-302, 2-((8-chloro-11-(3-(4-chloro-3,5-dimethylphenoxy)propyl)-1-oxo-7-(1,3,5-trimethyl-1H-pyrazol-4-yl)-4,5-dihydro-1H-[1,4]diazepino[1,2-a]indol-2(3H)-yl)methyl)-6-(isopentyloxy)isonicotinic acid], the Ki is under 50 nM.
For the compound `Cc1cc(OCCCc2c3n(c4c(-c5c(C)nn(C)c5C)cccc24)CCN(Cc2cccc(-c4nnn[nH]4)c2)C3=O)cc(C)c1Cl` [I-85, 2-(3-(1H-tetrazol-5-yl)benzyl)-10-(3-(4-chloro-3,5-dimethylphenoxy)propyl)-6-(1,3,5-trimethyl-1H-pyrazol-4-yl)-3,4-dihydropyrazino[1,2-a]indol-1(2H)-one], the Ki was under 50 nM.
As for `Cc1cc(OCCCc2c(C(=O)N3CCN(c4ccc(C(=O)O)cc4)CC3)n(Cc3cccnc3)c3c(-c4c(C)nn(C)c4C)c(Cl)ccc23)cc(C)c1Cl` [I-338, 4-(4-(6-chloro-3-(3-(4-chloro-3,5-dimethylphenoxy)propyl)-1-(pyridin-3-ylmethyl)-7-(1,3,5-trimethyl-1H-pyrazol-4-yl)-1H-indole-2-carbonyl)piperazin-1-yl)benzoic acid], the figure is under 50 nM; as for `Cc1cc(OCCCc2c(C(=O)Nc3cc(C(=O)O)cc(N(C)CCN(C)C)c3)[nH]c3c(-c4c(C)nn(C)c4C)c(Cl)ccc23)cc(C)c1Cl` [I-210, 3-(6-chloro-3-(3-(4-chloro-3,5-dimethylphenoxy)propyl)-7-(1,3,5-trimethyl-1H-pyrazol-4-yl)-1H-indole-2-carboxamido)-5-((2-(dimethylamino)ethyl)(methyl)amino)benzoic acid], under 50 nM.
Turning to `Cc1cc(OCCCc2c3n(c4c(-c5c(C)nn(C)c5C)c(Cl)ccc24)C[C@H](C)N(Cc2cccc(C(=O)O)c2)C3=O)cc(C)c1Cl` [I-136, (S)-3-((7-chloro-10-(3-(4-chloro-3,5-dimethylphenoxy)propyl)-3-methyl-1-oxo-6-(1,3,5-trimethyl-1H-pyrazol-4-yl)-3,4-dihydropyrazino[1,2-a]indol-2(1H)-yl)methyl)benzoic acid], the Ki is under 50 nM.
As for `Cc1cc(OCCCc2c3n(c4c(-c5c(C)nn(C)c5C)c(Cl)ccc24)CCCN(c2cc(C(=O)O)cc(N(C)CCN(C)C)c2)C3=O)cc(C)c1Cl` [I-211, 3-(8-chloro-11-(3-(4-chloro-3,5-dimethylphenoxy)propyl)-1-oxo-7-(1,3,5-trimethyl-1H-pyrazol-4-yl)-4,5-dihydro-1H-[1,4]diazepino[1,2-a]indol-2(3H)-yl)-5-((2-(dimethylamino)ethyl)(methyl)amino)benzoic acid], the figure is under 50 nM.
As for `Cc1cc(OCCCc2c(C(=O)NCc3cccc(C(=O)NS(=O)(=O)c4ccccc4C#N)c3)[nH]c3c(-c4c(C)n[nH]c4C)cccc23)cc(C)c1Cl` [I-26, 3-(3-(4-chloro-3,5-dimethylphenoxy)propyl)-N-(3-(((2-cyanophenyl)sulfonyl)carbamoyl)benzyl)-7-(3,5-dimethyl-1H-pyrazol-4-yl)-1H-indole-2-carboxamide], the Ki was under 50 nM.
Then `Cc1cc(OCCCc2c3n(c4c(-c5c(C)nn(C)c5C)cccc24)CCCN(Cc2ccc(-c4nnn[nH]4)cc2)C3=O)cc(C)c1Cl` [I-88, 2-(4-(1H-tetrazol-5-yl)benzyl)-11-(3-(4-chloro-3,5-dimethylphenoxy)propyl)-7-(1,3,5-trimethyl-1H-pyrazol-4-yl)-2,3,4,5-tetrahydro-1H-[1,4]diazepino[1,2-a]indol-1-one], with under 50 nM; and `Cc1cc(OCCCc2c(C(=O)NCc3cccc(C(=O)NS(=O)(=O)c4ccccc4C#N)c3)[nH]c3c(-c4c(CN5CCCC5)nn(C)c4C)cccc23)cc(C)c1Cl` [I-35, 3-(3-(4-chloro-3,5-dimethylphenoxy)propyl)-N-(3-(((2-cyanophenyl)sulfonyl)carbamoyl)benzyl)-7-(1,5-dimethyl-3-(pyrrolidin-1-ylmethyl)-1H-pyrazol-4-yl)-1H-indole-2-carboxamide], with under 50 nM; and `Cc1cc(OCCCc2c(C(=O)Nc3cccc(C#N)c3)[nH]c3c(-c4c(C)nn(C)c4C)c(Cl)ccc23)cc(C)c1Cl` [I-352, 6-chloro-3-(3-(4-chloro-3,5-dimethylphenoxy)propyl)-N-(3-cyanophenyl)-7-(1,3,5-trimethyl-1H-pyrazol-4-yl)-1H-indole-2-carboxamide], with 51 to 100 nM.
Then `Cc1cc(OCCCc2c(C(=O)NCc3ccc(C(=O)NS(=O)(=O)c4ccccc4)o3)[nH]c3ccccc23)cc(C)c1Cl` [I-60, 3-(3-(4-chloro-3,5-dimethylphenoxy)propyl)-N-((5-((phenylsulfonyl)carbamoyl)furan-2-yl)methyl)-1H-indole-2-carboxamide], with 101 to 299 nM.
As for `Cc1cc(OCCCc2c(C(=O)NCCC(=O)NS(=O)(=O)c3ccc(Oc4ccccc4)cc3)[nH]c3ccccc23)cc(C)c1Cl` [I-17, 3-(3-(4-chloro-3,5-dimethylphenoxy)propyl)-N-(3-oxo-3-((4-phenoxyphenyl)sulfonamido)propyl)-1H-indole-2-carboxamide], the figure is 101 to 299 nM.
As to `Cc1cc(OCCCc2c(C(=O)Nc3cccc(CC(=O)O)c3)[nH]c3c(-c4c(C)nn(C)c4C)cccc23)cc(C)c1Cl` [I-206, 2-(3-(3-(3-(4-chloro-3,5-dimethylphenoxy)propyl)-7-(1,3,5-trimethyl-1H-pyrazol-4-yl)-1H-indole-2-carboxamido)phenyl)acetic acid], the Ki was under 50 nM.
As for `Cc1cc(OCCCc2c3n(c4c(-c5c(C)nn(C)c5C)c(Cl)ccc24)[C@H](C)CN(Cc2ccc(C(=O)O)cc2)C3=O)cc(C)c1Cl` [I-154, (R)-4-((7-chloro-10-(3-(4-chloro-3,5-dimethylphenoxy)propyl)-4-methyl-1-oxo-6-(1,3,5-trimethyl-1H-pyrazol-4-yl)-3,4-dihydropyrazino[1,2-a]indol-2(1H)-yl)methyl)benzoic acid], the figure is under 50 nM.
Then `Cc1cc(OCCCc2c3n(c4c(-c5c(C)nn(C)c5C)c(Cl)ccc24)CCCN(Cc2cc(C(=O)O)c(C)o2)C3=O)cc(C)c1Cl` [I-347, 5-((8-chloro-1-(3-(4-chloro-3,5-dimethylphenoxy)propyl)-1-oxo-7-(1,3,5-trimethyl-1H-pyrazol-4-yl)-4,5-dihydro-1H-[1,4]diazepino[1,2-a]indol-2(3H)-yl)methyl)-2-methylfuran-3-carboxylic acid], with under 50 nM.
`Cc1cc(OCCCc2c3n(c4c(-c5c(C)nn(C)c5C)c(Cl)ccc24)CCN(Cc2ccc(C(=O)O)o2)C3=O)cc(C)c1Cl` [I-143, 5-((7-chloro-10-(3-(4-chloro-3,5-dimethylphenoxy)propyl)-1-oxo-6-(1,3,5-trimethyl-1H-pyrazol-4-yl)-3,4-dihydropyrazino[1,2-a]indol-2(1H)-yl)methyl)furan-2-carboxylic acid]: the Ki is under 50 nM.
As for `Cc1cc(OCCCc2c(C(=O)NCC(=O)NS(=O)(=O)C3CC3)[nH]c3ccccc23)cc(C)c1Cl` [I-9, 3-(3-(4-chloro-3,5-dimethylphenoxy)propyl)-N-(2-(cyclopropanesulfonamido)-2-oxoethyl)-1H-indole-2-carboxamide], the figure is 501 to 999 nM.

What is called Ki is the dissociation constant of the complex between target and ligand, obtained from inhibition or displacement.
